Data reported in US11518758B2, “Heteroarylaminopyrimidine amide autophagy inhibitors and methods of use thereof” (Deciphera Pharmaceuticals, LLC, priority 2019, dated 2022).

What was measured:
ULK2 kinase = target: T1, ULK2 kinase (Homo sapiens, UniProt Q8IYT8); assay: Biochemical assay for ULK2 (coupled pyruvate kinase/lactate dehydrogenase assay); conditions: 9.7 nM ULK2 (Eurofins), myelin basic protein, 1 mM ATP; read-out: ULK2.2
T1 construct: purchased Eurofins 14-772
Description: Example 176. Biochemical Assay for ULK2
Activity of ULK2 kinase was determined spectroscopically using a coupled pyruvate kinase/lactate dehydrogenase assay that continuously monitors the ATP hydrolysis-dependent oxidation of NADH (e.g., Schindler et al. Science (2000) 289: 1938-1942). Assays were conducted in 384-well plates (100 uL final volume) using 9.7 nM ULK2 (Eurofins CAT #14-772), 0.25 mg/mL myelin basic protein, 1.5 units pyruvate kinase, 2.1 units lactate dehydrogenase, 1 mM phosphoenol pyruvate, 0.28 mM NADH and 1 mM ATP in assay buffer (100 mM Tris, pH 7.5, 15 mM MgCl2, 0.5 mM DTT, 0.1% octyl-glucoside, 0.002% (w/v) BSA, and 0.002% Triton X-100). Inhibition of ULK2 was measured by adding serial diluted test compound (final assay concentration of 1% DMSO). A decrease in absorption at 340 nm was monitored continuously for 6 hours at 30° C. on a multi-mode microplate reader (BioTek). The reaction rate was calculated using the 2-3 h time frame. The reaction rate at each concentration of compound was converted to percent inhibition using controls (i.e. reaction with no test compound and reaction with a known inhibitor) and IC50 values were calculated by fitting a four-parameter sigmoidal curve to the data using Prism (GraphPad software).

LRRK2 kinase = target: T2, LRRK2 kinase (Homo sapiens, UniProt Q5S007); assay: Biochemical assay for LRRK2 (coupled pyruvate kinase/lactate dehydrogenase assay); conditions: 26.4 nM LRRK2 (residues 970-2528), 0.1 mM peptide substrate, 1 mM ATP
T2 construct: purchased Thermo Fisher
T2 sequence (Q5S007 with tags, fused parts or gaps): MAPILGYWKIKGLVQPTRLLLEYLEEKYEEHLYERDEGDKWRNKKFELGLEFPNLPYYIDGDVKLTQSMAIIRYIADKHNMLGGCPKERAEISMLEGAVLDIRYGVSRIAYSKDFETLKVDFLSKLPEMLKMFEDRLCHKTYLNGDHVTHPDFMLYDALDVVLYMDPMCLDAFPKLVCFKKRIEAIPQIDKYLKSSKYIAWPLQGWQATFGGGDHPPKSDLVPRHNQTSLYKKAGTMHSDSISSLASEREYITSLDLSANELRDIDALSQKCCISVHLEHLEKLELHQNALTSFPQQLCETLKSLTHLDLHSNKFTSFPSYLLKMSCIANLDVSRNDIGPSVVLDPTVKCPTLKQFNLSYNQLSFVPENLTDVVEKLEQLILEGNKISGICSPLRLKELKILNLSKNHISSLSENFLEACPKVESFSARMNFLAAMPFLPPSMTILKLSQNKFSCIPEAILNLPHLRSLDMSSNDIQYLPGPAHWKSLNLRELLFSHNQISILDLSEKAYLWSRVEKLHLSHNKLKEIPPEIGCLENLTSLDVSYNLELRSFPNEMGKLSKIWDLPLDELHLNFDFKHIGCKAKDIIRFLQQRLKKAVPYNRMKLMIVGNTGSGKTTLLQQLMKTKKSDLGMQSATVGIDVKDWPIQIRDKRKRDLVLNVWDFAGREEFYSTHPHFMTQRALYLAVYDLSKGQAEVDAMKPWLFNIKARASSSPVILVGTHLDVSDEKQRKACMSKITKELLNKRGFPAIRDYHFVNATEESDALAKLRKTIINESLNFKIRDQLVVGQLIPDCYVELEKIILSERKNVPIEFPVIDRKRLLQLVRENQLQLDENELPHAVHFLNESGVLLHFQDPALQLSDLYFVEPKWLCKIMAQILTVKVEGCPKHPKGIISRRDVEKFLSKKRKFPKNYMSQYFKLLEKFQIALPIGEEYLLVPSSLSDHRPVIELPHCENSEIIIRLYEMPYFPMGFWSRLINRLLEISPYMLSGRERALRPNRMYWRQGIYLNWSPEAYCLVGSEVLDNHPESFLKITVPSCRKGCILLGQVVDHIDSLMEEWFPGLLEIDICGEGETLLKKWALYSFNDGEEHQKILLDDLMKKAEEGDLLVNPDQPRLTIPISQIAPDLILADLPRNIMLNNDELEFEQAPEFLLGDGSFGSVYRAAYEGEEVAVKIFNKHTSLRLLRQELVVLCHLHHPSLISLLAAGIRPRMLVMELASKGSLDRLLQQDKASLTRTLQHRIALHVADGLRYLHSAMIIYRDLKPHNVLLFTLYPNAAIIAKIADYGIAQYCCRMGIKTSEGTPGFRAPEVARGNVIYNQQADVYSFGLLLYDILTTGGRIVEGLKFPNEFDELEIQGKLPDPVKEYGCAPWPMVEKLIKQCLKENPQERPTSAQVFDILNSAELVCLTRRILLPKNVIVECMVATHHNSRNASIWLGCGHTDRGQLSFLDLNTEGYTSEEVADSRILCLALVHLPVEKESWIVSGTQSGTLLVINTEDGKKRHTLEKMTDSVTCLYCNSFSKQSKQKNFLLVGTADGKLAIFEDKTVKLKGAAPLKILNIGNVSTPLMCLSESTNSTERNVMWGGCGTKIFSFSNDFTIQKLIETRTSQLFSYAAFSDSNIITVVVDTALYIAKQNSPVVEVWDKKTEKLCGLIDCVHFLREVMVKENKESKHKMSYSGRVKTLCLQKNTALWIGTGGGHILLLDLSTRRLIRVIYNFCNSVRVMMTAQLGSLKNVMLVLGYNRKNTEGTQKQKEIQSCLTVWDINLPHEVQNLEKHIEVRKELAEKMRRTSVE
Description: Example 182. Biochemical Assay for LRRK2 (SEQ. ID NO. 4)
(§1) Activity of LRRK2 kinase was determined spectroscopically using a coupled pyruvate kinase/lactate dehydrogenase assay that continuously monitors the ATP hydrolysis-dependent oxidation of NADH (e.g., Schindler et al. Science (2000) 289: 1938-1942). Assays were conducted in 384-well plates (100 uL final volume) using 26.4 nM LRRK2 (Thermo Fisher), 0.1 mM peptide substrate (RLGRDKYKTLRQIRQ (SEQ ID NO: 6)), 1.5 units pyruvate kinase, 2.1 units lactate dehydrogenase, 1 mM phosphoenol pyruvate, 0.28 mM NADH and 1 mM ATP in assay buffer (100 mM Tris, pH 7.5, 15 mM MgCl2, 0.5 mM DTT, 0.004% (w/v) BSA, and 0.004% Triton X-100). Inhibition of LRRK2 was measured by adding serial diluted test compound (final assay concentration of 1% DMSO). A decrease in absorption at 340 nm was monitored continuously for 6 hours at 30° C. on a multi-mode microplate reader (BioTek). The reaction rate was calculated using the 2-3 h time frame. The reaction rate at each concentration of compound was converted to percent inhibition using controls (i.e. reaction with no test compound and reaction with a known inhibitor) and IC50 values were calculated using software routines in Prism (GraphPad software).

[1] = tested on: phospho-Serine 318 ATG13 (pATG13), ULK kinase substrate, in A549 (KRAS mutant) cells; assay: pATG13 levels of mutant KRas A549 cells after treatment with ULK inhibitors in combination with trametinib (ELISA); format: cell-based, human; conditions: with 250 nM trametinib
Procedure, shortened: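 A549 cells grown overnight were treated overnight at 37 °C with a dose response of test compound plus 250 nM trametinib (final) or DMSO. Lysates were assayed by sandwich ELISA, with total ATG13 capture and biotinylated pS318-ATG13 detection read at 450 nm minus 540 nm, giving % phosphorylation against control and IC50.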

ULK1 kinase [2] = target: T3, ULK1 kinase (Homo sapiens, UniProt O75385); assay: Biochemical assay for ULK1.2 (coupled pyruvate kinase/lactate dehydrogenase assay); conditions: 19 nM ULK1 (Eurofins), myelin basic protein, 1 mM ATP
T3 construct: purchased Eurofins 14-959
T3 sequence (O75385 with tags, fused parts or gaps): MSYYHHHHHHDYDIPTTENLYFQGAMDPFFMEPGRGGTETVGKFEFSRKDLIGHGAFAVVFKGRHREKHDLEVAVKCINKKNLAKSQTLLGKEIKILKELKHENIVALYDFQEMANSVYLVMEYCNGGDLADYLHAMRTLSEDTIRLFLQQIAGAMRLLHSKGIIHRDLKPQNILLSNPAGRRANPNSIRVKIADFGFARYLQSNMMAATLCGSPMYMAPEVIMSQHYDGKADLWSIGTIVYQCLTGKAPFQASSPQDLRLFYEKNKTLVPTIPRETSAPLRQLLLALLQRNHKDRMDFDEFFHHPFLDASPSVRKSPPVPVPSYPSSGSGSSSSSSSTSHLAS
Procedure, shortened: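 NADH-coupled PK/LDH read-out at 340 nm, run with 19 nM ULK1, 0.25 mg/mL myelin basic protein and 1 mM ATP. Buffer was 100 mM Tris pH 7.5 with 15 mM MgCl2 and 1% DMSO final. Monitoring was continuous for 6 hours at 30° C; rates from the 2-3 h window were converted to percent inhibition and fitted to a four-parameter curve for IC50.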

ULK1 kinase [3] = target: T4, ULK1 kinase (Homo sapiens, UniProt O75385, E37A/K38A); assay: Biochemical assay for ULK1.3 (coupled pyruvate kinase/lactate dehydrogenase assay); conditions: 0.1 nM ULK1 (from Beryllium), peptide substrate, 1 mM ATP
T4 construct: (residues 1-283; ID NO: 2); purchased Beryllium
T4 sequence (O75385 1-283 E37A/K38A): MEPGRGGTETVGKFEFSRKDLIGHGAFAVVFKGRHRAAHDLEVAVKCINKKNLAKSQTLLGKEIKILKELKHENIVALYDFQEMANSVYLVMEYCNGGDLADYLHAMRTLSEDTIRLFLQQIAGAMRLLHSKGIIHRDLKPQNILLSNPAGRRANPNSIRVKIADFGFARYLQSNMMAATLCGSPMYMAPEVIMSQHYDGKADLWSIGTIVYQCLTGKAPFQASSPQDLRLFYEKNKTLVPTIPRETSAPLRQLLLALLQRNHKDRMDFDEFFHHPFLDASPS
Description: Example 175. Biochemical Assay for ULK1.3
as §1, with “ULK1” for “LRRK2”, “0.1” for “26.4”, “ULK1 (from Beryllium), 0.075” for “LRRK2 (Thermo Fisher), 0.1”, “(YANWLAASIYLDGKKK” for “(RLGRDKYKTLRQIRQ”, “5)),” for “6)),”

T1 sequence (Q8IYT8 with tags, fused parts or gaps): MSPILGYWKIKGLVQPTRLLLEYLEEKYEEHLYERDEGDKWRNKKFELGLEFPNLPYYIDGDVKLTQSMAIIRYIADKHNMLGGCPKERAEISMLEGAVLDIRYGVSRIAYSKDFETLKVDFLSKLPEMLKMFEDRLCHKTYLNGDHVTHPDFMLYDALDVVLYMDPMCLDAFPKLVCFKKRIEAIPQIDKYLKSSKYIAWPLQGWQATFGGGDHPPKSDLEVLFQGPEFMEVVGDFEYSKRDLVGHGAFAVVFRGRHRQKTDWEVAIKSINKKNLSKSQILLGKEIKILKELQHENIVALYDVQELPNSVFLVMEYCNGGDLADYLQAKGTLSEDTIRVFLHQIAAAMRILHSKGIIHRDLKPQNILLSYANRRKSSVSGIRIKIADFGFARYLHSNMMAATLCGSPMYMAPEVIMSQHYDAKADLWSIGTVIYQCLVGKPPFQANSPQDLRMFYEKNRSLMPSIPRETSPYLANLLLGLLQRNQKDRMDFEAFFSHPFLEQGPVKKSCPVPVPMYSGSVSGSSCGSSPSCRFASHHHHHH

`Cc1nn(C2CCNCC2)cc1Nc1ncc(Br)c(NCCCN2CCCCC2=O)n1` [Example 26] was tested, and the IC50 (ULK2 kinase) was 25 to 100 nM, the IC50 (LRRK2 kinase) was 300 to 600 nM and the IC50 [1] was over 600 nM. The IC50 (ULK1 kinase [2]) was 1 to 25 nM.

In the case of `Cc1nn(C(C)(C)C(N)=O)cc1Nc1ncc(C(F)(F)F)c(NCCCN2CCCCC2=O)n1` [Example 67], the IC50 (LRRK2 kinase) is reported as 1 to 100 nM and the IC50 (ULK1 kinase [3]) is reported as over 500 nM.

`CCc1nn(C2CCN(C(C)C)CC2)cc1Nc1ncc(Cl)c(NCCCN2CCCOC2=O)n1` [Example 73] showed an IC50 (LRRK2 kinase) of 300 to 600 nM and an IC50 (ULK1 kinase [3]) of 100 to 500 nM.

`Cc1nn(C2CCN(C(C)C)CC2)cc1Nc1ncc(C2CC2)c(NCCCN2CCOCC2=O)n1` [Example 75] showed an IC50 (ULK1 kinase [3]) of over 500 nM.

`CCc1nn(C2CCN(C(C)C)CC2)cc1Nc1ncc(C2CC2)c(NCCCN2CCOCC2=O)n1` [Example 76] gave an IC50 (LRRK2 kinase) of over 600 nM and an IC50 (ULK1 kinase [3]) of over 500 nM.

Work on `Cc1nn(C2CCN(C)CC2)cc1Nc1ncc(Cl)c(NCCCN2CCCCCC2=O)n1` [Example 80, 1-(3-((5-chloro-2-((3-methyl-1-(1-methylpiperidin-4-yl)-1H-pyrazol-4-yl)amino)pyrimidin-4-yl)amino)propyl)azepan-2-one] yielded an IC50 (ULK2 kinase) of 100 to 500 nM, an IC50 (LRRK2 kinase) of 100 to 300 nM and an IC50 [1] of 10 to 100 nM. For the same molecule, the IC50 (ULK1 kinase [2]) was 1 to 25 nM.

Molecule `Cc1nn(C2CCN(C)CC2)cc1Nc1ncc(C(F)(F)F)c(NCCCN2CCCC2=O)n1` [Example 104] has an IC50 (ULK2 kinase) of 25 to 100 nM, an IC50 (LRRK2 kinase) of 300 to 600 nM and an IC50 [1] of over 600 nM. For the same molecule, the IC50 (ULK1 kinase [2]) was 25 to 100 nM.

`Cc1nn([C@@H]2CCN(C)C2)cc1Nc1ncc(Cl)c(NCCCN2CCCOCC2=O)n1` [Example 113] was tested, and the IC50 (LRRK2 kinase) was 100 to 300 nM and the IC50 (ULK1 kinase [3]) was 100 to 500 nM.

With `Cc1nn(C2CCN(C(C)C)CC2)cc1Nc1ncc(C2CC2)c(NCCCN2CCCOCC2=O)n1` [Example 114] the IC50 (LRRK2 kinase) was over 600 nM and the IC50 (ULK1 kinase [3]) was over 500 nM.

`Cc1nn(CCCN2CCOCC2)cc1Nc1ncc(C2CC2)c(NCCCN2CCCOCC2=O)n1` [Example 115] showed an IC50 (LRRK2 kinase) of over 600 nM and an IC50 (ULK1 kinase [3]) of over 500 nM.

In the case of `Cc1nn(CCN(C)C)cc1Nc1ncc(C2CC2)c(NCCCN2CCCOCC2=O)n1` [Example 116], the IC50 (LRRK2 kinase) is reported as over 600 nM and the IC50 (ULK1 kinase [3]) is reported as over 500 nM.

`Cc1nn(CCN(C)C)cc1Nc1ncc(C(F)(F)F)c(NCCCN2CCCOCC2=O)n1` [Example 117] showed an IC50 (ULK1 kinase [3]) of 25 to 100 nM.

For `CCc1nn(C2CCN(C)CC2)cc1Nc1ncc(C2CC2)c(NCCCN2CCCOCC2=O)n1` [Example 119], the IC50 (ULK1 kinase [3]) was over 500 nM.

In the case of `Cc1nn(CCCN2CCOCC2)cc1Nc1ncc(Cl)c(NCCCN2CCCOCC2=O)n1` [Example 120], the IC50 (ULK1 kinase [3]) is reported as over 500 nM.

`Cc1nn(CCCN2CCOCC2)cc1Nc1ncc(Br)c(NCCCN2CCCOCC2=O)n1` [Example 121] was tested, and the IC50 (ULK1 kinase [3]) was 100 to 500 nM.

`Cc1nn(CCN(C)C)cc1Nc1ncc(Br)c(NCCCN2CCCOCC2=O)n1` [Example 122] showed an IC50 (LRRK2 kinase) of 100 to 300 nM and an IC50 (ULK1 kinase [3]) of 100 to 500 nM.

`Cc1nn(CCN(C)C)cc1Nc1ncc(Cl)c(NCCCN2CCCOCC2=O)n1` [Example 123] showed an IC50 (LRRK2 kinase) of over 600 nM and an IC50 (ULK1 kinase [3]) of over 500 nM.

For `Cc1nn(C(C)(C)C(N)=O)cc1Nc1ncc(C(F)(F)F)c(NCCCN2CCCOCC2=O)n1` [Example 125, 2-methyl-2-(3-methyl-4-((4-((3-(3-oxo-1,4-oxazepan-4-yl)propyl)amino)-5-(trifluoromethyl)pyrimidin-2-yl)amino)-1H-pyrazol-1-yl)propanamide], the IC50 (LRRK2 kinase) was 1 to 100 nM and the IC50 (ULK1 kinase [3]) was over 500 nM.

Work on `Cc1cn(C2CCN(C)CC2)nc1Nc1ncc(C(F)(F)F)c(NCCCN2CCCOC2=O)n1` [Example 126] yielded an IC50 (LRRK2 kinase) of over 600 nM and an IC50 (ULK1 kinase [3]) of over 500 nM.

For `CCc1nn(C2CCN(C)CC2)cc1Nc1ncc(C(F)(F)F)c(NCCCN2CCOCCC2=O)n1` [Example 136], the IC50 (ULK1 kinase [3]) was 1 to 25 nM.

`Cc1nn(CCN(C)C)cc1Nc1ncc(C(F)(F)F)c(NCCCN2CCOCCC2=O)n1` [Example 137] showed an IC50 (ULK1 kinase [3]) of 100 to 500 nM.

For `Cc1nn(CCCN2CCOCC2)cc1Nc1ncc(C2CC2)c(NCCCN2CCOCCC2=O)n1` [Example 139], the IC50 (LRRK2 kinase) was over 600 nM and the IC50 (ULK1 kinase [3]) was over 500 nM.

Molecule `Cc1nn(CCN(C)C)cc1Nc1ncc(C2CC2)c(NCCCN2CCOCCC2=O)n1` [Example 140] has an IC50 (LRRK2 kinase) of over 600 nM and an IC50 (ULK1 kinase [3]) of over 500 nM.

`Cc1nn(C2CCN(C)CC2)cc1Nc1ncc(C2CC2)c(NCCCN2CCOCCC2=O)n1` [Example 141] gave an IC50 (LRRK2 kinase) of over 600 nM and an IC50 (ULK1 kinase [3]) of 100 to 500 nM.

Work on `CCN1CCC(n2cc(Nc3ncc(C4CC4)c(NCCCN4CCOCCC4=O)n3)c(C)n2)CC1` [Example 142] yielded an IC50 (ULK1 kinase [3]) of over 500 nM.

In the case of `Cc1nn(C2CCN(C(C)C)CC2)cc1Nc1ncc(Cl)c(NCCCN2CCOCCC2=O)n1` [Example 143], the IC50 (ULK1 kinase [3]) is reported as 100 to 500 nM.

`Cc1nn(CCN(C)C)cc1Nc1ncc(Br)c(NCCCN2CCOCCC2=O)n1` [Example 144] showed an IC50 (ULK1 kinase [3]) of 100 to 500 nM.

`Cc1nn(C(C)(C)C(N)=O)cc1Nc1ncc(C(F)(F)F)c(NCCCN2CCOCCC2=O)n1` [Example 145] showed an IC50 (LRRK2 kinase) of 1 to 100 nM and an IC50 (ULK1 kinase [3]) of 100 to 500 nM.

For `CCN(CC)CCn1cc(Nc2ncc(C(F)(F)F)c(NCCCN3CCOCCC3=O)n2)c(C)n1` [Example 146], the IC50 (ULK1 kinase [3]) was 100 to 500 nM.

`Cc1nn(C(C)(C)C#N)cc1Nc1ncc(C(F)(F)F)c(NCCCN2CCCOCC2=O)n1` [Example 172, 2-methyl-2-(3-methyl-4-((4-((3-(3-oxo-1,4-oxazepan-4-yl)propyl)amino)-5-(trifluoromethyl)pyrimidin-2-yl)amino)-1H-pyrazol-1-yl)propanenitrile] gave an IC50 (LRRK2 kinase) of 1 to 100 nM and an IC50 (ULK1 kinase [3]) of 100 to 500 nM.
